Details: Liquid, Falling or rolling sphere viscometry

CCCCn1cc[n+](C)c1C.O=S(=O)([N-]S(=O)(=O)C(F)(F)F)C(F)(F)F
viscosity [mPa·s]
Details	10000 kPa	15000 kPa	25000 kPa	50000 kPa	75000 kPa	100000 kPa	125000 kPa	150000 kPa
313.15 K	55.9	59.5	67.3	90.7	120.9	159.8	210.1	275
343.15 K	19.5	20.5	22.7	28.8	36.3	45.5	56.9	70.9
363.15 K	12.4	13	14.3	17.9	22.1	26.9	32.4	38.7

— the NIST ThermoML archive (doi:10.1016/j.jct.2013.02.014)
